Assay in all cases: Kinase panel study
Holding throughout (assay type): biochemical
Holding throughout (details): read-out: Percentage of inhibition; for inhibition at 1 µM: 1000nM; for inhibition at 10 µM: 10000nM

One assay has as its target T1, KSR2 (Homo sapiens, UniProt Q6VAB6).
T1 construct: purchased Thermo Fisher Scientific
T1 sequence (Q6VAB6 1-950): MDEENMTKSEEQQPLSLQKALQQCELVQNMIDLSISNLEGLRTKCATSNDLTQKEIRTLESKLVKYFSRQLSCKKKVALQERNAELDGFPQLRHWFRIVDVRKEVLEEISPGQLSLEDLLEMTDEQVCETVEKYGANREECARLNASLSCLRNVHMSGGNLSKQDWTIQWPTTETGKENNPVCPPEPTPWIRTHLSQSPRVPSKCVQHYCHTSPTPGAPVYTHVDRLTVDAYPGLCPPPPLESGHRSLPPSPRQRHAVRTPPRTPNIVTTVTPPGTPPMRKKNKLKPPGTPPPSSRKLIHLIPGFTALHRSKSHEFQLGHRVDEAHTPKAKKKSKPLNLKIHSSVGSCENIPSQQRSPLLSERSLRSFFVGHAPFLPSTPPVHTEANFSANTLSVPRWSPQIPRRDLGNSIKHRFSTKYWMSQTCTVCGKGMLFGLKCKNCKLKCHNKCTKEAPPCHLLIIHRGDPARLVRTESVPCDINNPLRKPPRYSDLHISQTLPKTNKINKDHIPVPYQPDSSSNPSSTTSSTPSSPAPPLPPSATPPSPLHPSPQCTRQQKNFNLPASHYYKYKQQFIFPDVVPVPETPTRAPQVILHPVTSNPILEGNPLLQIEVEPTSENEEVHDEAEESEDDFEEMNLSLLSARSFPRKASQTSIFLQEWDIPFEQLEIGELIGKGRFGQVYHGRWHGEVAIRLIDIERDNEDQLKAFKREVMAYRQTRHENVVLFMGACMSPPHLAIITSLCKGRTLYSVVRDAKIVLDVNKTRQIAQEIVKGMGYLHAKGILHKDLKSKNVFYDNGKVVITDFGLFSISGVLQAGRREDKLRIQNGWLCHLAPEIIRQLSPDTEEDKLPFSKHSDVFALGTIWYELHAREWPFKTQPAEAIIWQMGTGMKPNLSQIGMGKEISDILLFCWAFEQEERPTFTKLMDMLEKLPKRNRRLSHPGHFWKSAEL
The method in brief:
(§1)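 Kinase inhibition was determined by a contract provider in cell-free ZLyte or Adapta assays. Results are expressed as % inhibition at 10 or 1 µM.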

A further assay has as its target T2, FLT3 D835Y (Homo sapiens, UniProt P36888, D835Y).
T2 construct: purchased Thermo Fisher Scientific
T2 sequence (P36888 27-993 D835Y): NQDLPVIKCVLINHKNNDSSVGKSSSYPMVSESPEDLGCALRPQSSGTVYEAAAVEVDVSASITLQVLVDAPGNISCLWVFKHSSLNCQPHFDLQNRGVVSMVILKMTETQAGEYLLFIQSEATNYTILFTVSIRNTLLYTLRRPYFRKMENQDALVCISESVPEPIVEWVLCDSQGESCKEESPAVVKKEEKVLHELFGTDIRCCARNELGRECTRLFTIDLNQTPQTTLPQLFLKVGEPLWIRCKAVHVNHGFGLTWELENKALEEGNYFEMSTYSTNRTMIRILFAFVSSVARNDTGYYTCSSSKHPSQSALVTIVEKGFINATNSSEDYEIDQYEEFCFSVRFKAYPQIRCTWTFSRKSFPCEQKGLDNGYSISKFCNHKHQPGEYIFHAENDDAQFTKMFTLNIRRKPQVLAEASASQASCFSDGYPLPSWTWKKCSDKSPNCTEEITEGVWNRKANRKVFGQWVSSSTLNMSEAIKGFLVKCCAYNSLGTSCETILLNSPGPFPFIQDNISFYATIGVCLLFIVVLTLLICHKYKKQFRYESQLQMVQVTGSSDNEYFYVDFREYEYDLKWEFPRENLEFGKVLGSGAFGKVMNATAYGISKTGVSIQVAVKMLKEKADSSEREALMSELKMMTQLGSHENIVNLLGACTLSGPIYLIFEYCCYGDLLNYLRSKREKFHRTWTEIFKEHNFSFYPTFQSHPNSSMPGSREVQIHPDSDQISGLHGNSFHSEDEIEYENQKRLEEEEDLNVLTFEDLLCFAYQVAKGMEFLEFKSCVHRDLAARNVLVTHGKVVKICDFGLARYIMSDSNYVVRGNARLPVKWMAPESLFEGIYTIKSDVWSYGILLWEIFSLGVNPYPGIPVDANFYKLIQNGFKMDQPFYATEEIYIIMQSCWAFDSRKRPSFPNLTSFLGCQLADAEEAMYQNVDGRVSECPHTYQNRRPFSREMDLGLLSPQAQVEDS
The method in brief: as §1

Another assay has as its target T3, MET (cMet) (Homo sapiens, UniProt P08581).
T3 construct: purchased Thermo Fisher Scientific
The essentials:
as §1

T3 sequence (P08581 25-1390): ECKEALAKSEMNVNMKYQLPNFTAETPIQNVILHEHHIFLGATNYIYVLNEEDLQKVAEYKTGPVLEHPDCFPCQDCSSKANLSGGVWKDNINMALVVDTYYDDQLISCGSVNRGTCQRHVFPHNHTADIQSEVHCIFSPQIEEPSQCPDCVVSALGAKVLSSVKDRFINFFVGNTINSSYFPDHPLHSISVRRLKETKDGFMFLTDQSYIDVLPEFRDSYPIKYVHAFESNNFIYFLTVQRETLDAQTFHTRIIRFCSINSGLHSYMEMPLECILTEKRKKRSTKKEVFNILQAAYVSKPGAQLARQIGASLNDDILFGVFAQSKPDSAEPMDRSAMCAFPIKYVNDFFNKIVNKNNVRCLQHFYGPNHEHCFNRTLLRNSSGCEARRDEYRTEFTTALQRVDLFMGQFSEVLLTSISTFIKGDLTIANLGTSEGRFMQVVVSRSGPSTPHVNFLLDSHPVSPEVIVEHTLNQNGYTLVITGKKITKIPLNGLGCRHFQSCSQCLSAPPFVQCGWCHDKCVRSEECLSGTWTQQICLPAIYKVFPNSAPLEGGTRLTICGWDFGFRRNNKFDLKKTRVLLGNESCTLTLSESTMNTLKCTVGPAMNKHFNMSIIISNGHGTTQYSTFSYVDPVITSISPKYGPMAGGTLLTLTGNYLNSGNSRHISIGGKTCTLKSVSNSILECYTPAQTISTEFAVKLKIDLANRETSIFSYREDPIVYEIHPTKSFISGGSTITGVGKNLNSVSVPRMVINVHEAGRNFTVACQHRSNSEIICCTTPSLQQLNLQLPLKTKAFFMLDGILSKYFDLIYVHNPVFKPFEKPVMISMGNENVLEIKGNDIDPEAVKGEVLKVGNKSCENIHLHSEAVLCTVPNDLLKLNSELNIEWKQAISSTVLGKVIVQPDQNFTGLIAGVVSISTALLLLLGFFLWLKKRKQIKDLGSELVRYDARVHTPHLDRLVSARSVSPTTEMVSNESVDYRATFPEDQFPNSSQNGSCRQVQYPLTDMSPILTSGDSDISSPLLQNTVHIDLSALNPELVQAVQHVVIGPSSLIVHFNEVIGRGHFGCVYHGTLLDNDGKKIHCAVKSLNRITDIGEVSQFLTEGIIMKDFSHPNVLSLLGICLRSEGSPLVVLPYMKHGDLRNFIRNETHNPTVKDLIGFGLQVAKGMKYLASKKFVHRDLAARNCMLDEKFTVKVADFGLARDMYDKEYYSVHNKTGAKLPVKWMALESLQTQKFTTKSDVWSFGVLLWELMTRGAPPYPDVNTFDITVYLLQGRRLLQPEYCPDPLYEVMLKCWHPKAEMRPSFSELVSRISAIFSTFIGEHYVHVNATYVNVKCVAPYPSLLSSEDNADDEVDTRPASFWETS

As for `COc1ccc2c(c1OC)c(=O)n1c3ccc(O)cc3c3ccnc2c31` [MW01, 5-Hydroxy-10,11-dimethoxy-9H-benzo[c]indolo[3,2,1-ij][1,5]naphthyridin-9-one], the figures for the inhibition at 1 µM at KSR2, at FLT3 D835Y and on MET (cMet) were 5%, 81% and 14%, respectively. For the same compound, the figures for the inhibition at 10 µM on KSR2, at FLT3 D835Y and at MET (cMet) were 8%, 92% and 35%, respectively.
`COc1ccc2cc3c(N)nn(C(=O)c4cccc(N(C)C)c4)c3nc2c1` [MW05, (3-Amino-7-methoxypyrazolo[3,4-b]quinolin-1-yl)-[3-(dimethylamino)phenyl]methanone]: the inhibition at 1 µM turned out to be 7% on KSR2, 10% on FLT3 D835Y and 5% at MET (cMet). The inhibition at 10 µM was -2% at KSR2, 15% at FLT3 D835Y and -8% at MET (cMet).

Usually inhibition stands for the change of the read-out against control, counted positive when it falls.

The record behind these values is patent publication EP4467141A1, “PYRAZOLO-QUINOLINES AS SELECTIVE INHIBITORS OF GENOTOXIC STRESS-INDUCED IKK/NF- KB PATHWAYS FOR CANCER THERAPY” (Max-Delbrück-Centrum für Molekulare Medizin in der …, priority 2023, dated 2024).
